In patent US20040058903A1, “Benzamide compounds as apo b secretion inhibitors” (priority 2000, published 2004):

Key:
ddY-mice = assay: Lipids lowering effect on ddY-mice; assay type: in vivo; conditions: male ddY-mice, oral dose 32 mg/kg, 2 hr after administration, percent relative to baseline (0 hr); for Cholesterol (% of 0 hr) 2 hr: plasma total-cholesterol; for Triglyceride (% of 0 hr) 2 hr: plasma triglyceride
Description: Test 2: Lipids Lowering Effect on ddY-Mice
Male ddy-mice were housed in temperature- and humidity-controlled rooms and fed with laboratory chow. The animals were randomized according to their body weight and deprived of food just before the experiment. A blood sample (baseline blood sample) was collected from the retro orbital venous plexus before administration of the test drug, and then the animals were orally dosed with the test drug in a vehicle (aqueous solution of 0.5% methylcellulose). Blood samples were drawn at 2 hours after drug administration for the measurement of cholesterol and triglyceride.
Plasma total-cholesterol and plasma triglyceride were determined by conventional enzyme-methods using commercially available kits. The cholesterol CII-Test Wako (Wako Pure Chemical Industries, Ltd.) was used for the measurement of cholesterol, and the triglyceride E-test Wako (Wako Pure Chemical Industries, Ltd.) was used for the measurement of triglyceride.
Lipids lowering effects were shown in percent relative to the baseline level (level at 0 hr).

Apo B secretion = assay: Measurement of inhibition of Apo B secretion (HepG2 cells, ELISA); assay type: cell-based; conditions: 15-hour incubation, 0.1% DMSO treated cells as controls; for inhibition at 1 µM: Homo sapiens, 10^−6 M
Procedure: Test 1: Measurement of Inhibition of Apo B Secretion
HepG2 cells were seeded in Eagles medium containing 10% fetal calf serum (FCS) at a density of 30000 cells/well in 96-well plates and allowed to grow for 3 days before treatment. At this time, the medium was replaced with fresh medium containing 0.1% dimethyl sulfoxide (DMSO) and the indicated concentrations of a test compound. After 15-hour incubation, the amount of Apo B and Apo AI accumulated in the media was determined by ELISA.
The assay was carried out at room temperature. A flat bottomed micro ELISA plate (manufactured by Nunc) was coated with an anti Apo B monoclonal antibody solution ([…] in 0.05% carbonate buffer, pH 9.6) by adding the antibody solution at a volume of 100 μl per well. After 1-hour incubation on a plate mixer, the unbound materials were removed by washing the well 3 times with a washing buffer (phosphate buffered saline, pH 7.2 containing 0.1% bovine serum albumin and 0.05% Tween-20). Then 20 μl of […] and 100 μl of a solution of peroxidase coupled anti Apo B antibody were added. After 1-hour incubation on a plate mixer, washing was performed 3 times to remove the unbound materials. A freshly prepared substrate solution (2.5 mg/ml ortho-phenylene diamine and 0.018% H2Oz in 0.11 M Na2HPO4-0.044 M sodium citrate buffer, pH 5.4) at a volume of 200 μl was then added to each well. After 20-minute incubation, the enzyme reaction was terminated by adding 50 μl of 0.5 M sulfuric acid. Absorbance of each well was determined at 490 nm using a microplate reader. Apo B concentration was calculated from a standard curve generated from purified Apo B standard that was run in parallel in the same plate. Inhibition of Apo B secretion by the test compound is calculated taking […] treated cells as controls.
Measurement of Apo AI was performed similar to that of Apo B, except for diluting the sample 11-fold with a dilution buffer (phosphate buffered saline, pH 7.2 containing 0.5% bovine serum albumin and 0.05% Tween-20). […]

| SMILES | Cholesterol (% of 0 hr) 2 hr (ddY-mice) | Triglyceride (% of 0 hr) 2 hr (ddY-mice) | inhibition at 1 µM (Apo B secretion) [%] | Inhibition of Apo B secretion at 10^−6 M (%) (Apo B secretion) |
| --- | --- | --- | --- | --- |
| O=C(Nc1ccc(CCCc2ccccn2)cc1)c1ccccc1-c1ccc(C(F)(F)F)cc1 [Example 25, N-{4-[3-(2-pyridinyl)propyl]phenyl}-4′-(trifluoromethyl)-1,1′-biphenyl-2-carboxamide] | 78 % of 0 hr | 23 % of 0 hr | – | – |
| Nc1cccc(CCCc2ccc(NC(=O)c3ccccc3-c3ccc(C(F)(F)F)cc3)cc2)n1 [Example 44, N-{4-[3-(6-amino-2-pyridinyl)propyl]phenyl}-4′-(trifluoromethyl)-1,1′-biphenyl-2-carboxamide] | – | – | 100 | – |
| O=C(Nc1ccc(NCCc2ccccn2)cc1)c1ccccc1-c1ccc(C(F)(F)F)cc1 [Example 59, N-(4-{[2-(2-pyridinyl)ethyl]amino}phenyl)-4′-(trifluoromethyl)-1,1′-biphenyl-2-carboxamide] | 77 % of 0 hr | 15 % of 0 hr | – | – |
| O=C(Nc1ccc(NCCc2ccccn2)cc1)c1ccccc1Nc1cccc(C(F)(F)F)c1 [Example 64, N-(4-{[2-(2-pyridinyl)ethyl]amino}phenyl)-2-[3-(trifluoromethyl)-anilino]benzamide] | – | – | 100 | – |
| O=C(Cc1ccccn1)Nc1ccc(NC(=O)c2ccccc2-c2ccc(C(F)(F)F)cc2)cc1 [Example 65, N-{4-[(2-pyridinylacetyl)amino]phenyl]-4′-(trifluoromethyl)-1,1′-biphenyl-2-carboxamide] | 83 % of 0 hr | 36 % of 0 hr | – | 92.2 |
